What was measured:
[1] = molecular target: T1, tubulin (microtubular protein purified from pig brains) (Sus scrofa, UniProt P02550+P02554); test: Inhibition of tubulin polymerization (turbidimetry at 340 nm); assay type: biochemical; settings: pig brain microtubular protein 1 mg/ml, 0.25 mmol GTP, 37° C.
T1 construct: microtubular protein was purified from pig brains via cydic assembling/disassembling; from tissue; host or cells: pig brain
Method: The in-vitro testing of the tubulin polymerization influence was performed as follows:
According to Shelanski et al. (Shelanski et al. Proc. Natl. Acad. Sci. USA 1973, 70, 765-8), microtubular protein was purified from pig brains via cydic assembling/disassembling. The buffer system used had the following composition: 20 mmol of PIPES (1,4-piperazine-diethane-sulfonic acid, pKa 6.8), 80 mmol of NaCl, 0.5 mmol of MgCl2, 1 mmol of EGTA [ethylene glycol-bis-(2-aminoethylene)-tetraacetic acid].
For active ingredient testing, protein concentrations of 1 mg/ml (about 10^−5 mmol of tubulin) were used. The determination of protein was carried out according to the Lowry Method (Lowry et al. J. Biol. Chem. 1951, 193, 265-75) with bovine serum albumin as a standard. The assembling of microtubuli was carried out in the presence of 0.25 mmol of GTP and heating the samples to 37° C.
The microtubulus formation was examined by means of turbidimetry at a wavelength of 340 nm.
Testing of the active ingredients was carried out by their addition at the beginning of the assembling or in the state of equilibrium. […] To monitor action and to evaluate the measured turbidity values, a transmission electron microscopic study (CEM 902 A, Zeiss/Oberkochen) of the assemblates was always performed after negative staining with 1% aqueous uranyl acetate.

[2] = tested on: DU145 human prostate tumor cells; test: Inhibition of cell proliferation, crystal violet staining; assay type: cell-based; settings: DU145, 4 days incubation
Method: (§1) Cell cultures of the following cell lines were prepared in 96-well microtiter plates: • 1. MaTu/ADR multidrug-resistant human breast tumor cells (Epo GmbH Berlin), 5000 cells/well. • 2. HCT116 human colon tumor cells (ATCC CCL-247), 3000 cells/well. • 3. NCl-H460 human non-small-cell lung cancer cells (ATCC HTB-177), 3000 cells/well. • 4. DU145 human prostate tumor cells (ATCC HTB-81), 5000 cells/well. • 5. HMVEC human primary dermal microvascular endothelial cells, 7500 cells/well.
(§2) After 24 hours of incubation in a cell culture incubator at 37° C., the cells of a microtiter plate were stained with crystal violet (reference plate), while the cells in the test plates were incubated for 4 days with the test substances in the concentrations […], as well as with the DMSO solvent by itself (solvent control). The cell proliferation was determined by staining cells with crystal violet. The extinction of the crystal violet was determined by photometry at 595 nm. The percentage of the change in the cell number in the test plates was determined after the extinction values were normalized to the reference plate (0%) and to the solvent control (100%). The semi-maximal inhibition of the cell growth (IC50) was determined as the substance concentration, in which 50% of the cell number of the solvent controls were present.

[3] = tested on: HCT116 human colon tumor cells; test: as above; assay type: cell-based; settings: HCT116, 4 days incubation
Method: as §1, §2

[4] = tested on: HMVEC human primary dermal microvascular endothelial cells; test: as above; assay type: cell-based; settings: 4 days incubation
Method: as §1, §2

[5] = tested on: MaTu/ADR multidrug-resistant human breast tumor cells; test: as above; assay type: cell-based; settings: 4 days incubation
Method: as §1, §2

[6] = tested on: NCl-H460 human non-small-cell lung cancer cells; test: as above; assay type: cell-based; settings: NCl-H460, 4 days incubation
Method: as §1, §2

T1 sequence (P02550 whole entry): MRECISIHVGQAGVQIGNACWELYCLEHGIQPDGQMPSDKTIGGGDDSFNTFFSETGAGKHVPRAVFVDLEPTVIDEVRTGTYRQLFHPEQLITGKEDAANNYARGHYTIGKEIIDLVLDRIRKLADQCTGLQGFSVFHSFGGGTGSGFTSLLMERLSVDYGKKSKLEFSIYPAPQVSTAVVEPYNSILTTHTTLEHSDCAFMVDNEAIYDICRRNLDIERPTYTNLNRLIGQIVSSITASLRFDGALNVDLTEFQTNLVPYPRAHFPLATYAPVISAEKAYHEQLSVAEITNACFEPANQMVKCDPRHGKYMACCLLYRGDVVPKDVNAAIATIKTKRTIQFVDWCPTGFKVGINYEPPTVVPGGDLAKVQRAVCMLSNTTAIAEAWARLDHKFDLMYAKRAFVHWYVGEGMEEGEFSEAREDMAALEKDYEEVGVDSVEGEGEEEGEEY
T1 sequence (P02554 whole entry): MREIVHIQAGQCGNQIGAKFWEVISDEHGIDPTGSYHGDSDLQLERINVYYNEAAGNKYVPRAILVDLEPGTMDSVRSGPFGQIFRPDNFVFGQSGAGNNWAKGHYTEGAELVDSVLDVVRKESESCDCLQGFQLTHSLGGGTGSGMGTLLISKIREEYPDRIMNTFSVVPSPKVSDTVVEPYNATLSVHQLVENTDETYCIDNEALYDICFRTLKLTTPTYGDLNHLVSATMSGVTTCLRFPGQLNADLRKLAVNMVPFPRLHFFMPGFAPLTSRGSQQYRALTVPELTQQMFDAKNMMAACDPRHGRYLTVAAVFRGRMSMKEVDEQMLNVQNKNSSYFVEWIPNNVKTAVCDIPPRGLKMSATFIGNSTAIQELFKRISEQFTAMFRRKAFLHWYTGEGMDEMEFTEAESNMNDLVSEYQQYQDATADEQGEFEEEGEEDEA

IC50 [1] | IC50 ([2]; Homo sapiens, DU-145, 96 h) | IC50 ([3]; Homo sapiens, HCT-116, 96 h) | IC50 ([5]; Homo sapiens, 96 h) | IC50 ([6]; Homo sapiens, 96 h) | IC50 [2] | IC50 [3] | IC50 [5] | IC50 [6] | SMILES | IC50 ([4]; Homo sapiens, 96 h) | IC50 [4]
950 nM | 600 nM | 600 nM | 200 nM | 600 nM |  |  |  |  | COc1cc2c(cc1OS(N)(=O)=O)CC[C@@H]1[C@@H]2CC[C@]2(C)CCCC[C@@H]12 [(2), 2-Methoxy-17a-homoestra-1,3,5(10)-trien-3-yl Sulfamate] | 500 nM | 
 |  |  |  |  | 500 nM | 180 nM | < 100 nM | 180 nM | COc1cc2c(cc1OS(N)(=O)=O)CC[C@@H]1[C@@H]2CC[C@]2(C)C(=O)CCC[C@@H]12 [(1), 2-Methoxy-17a-oxo-17a-homoestra-1,3,5(10)-trien-3-yl Sulfamate] |  | 220 nM
 |  |  |  |  | 2800 nM | 1800 nM | 800 nM | 1800 nM | COc1cc2c(cc1OS(N)(=O)=O)CC[C@@H]1[C@@H]2CC[C@]2(C)[C@@H](OS(N)(=O)=O)CCC[C@@H]12 [(4), 2-Methoxy-17a-homoestra-1,3,5(10)-triene-3,17aβ-diyl Bissulfamate] |  | 600 nM

The remaining lines, values behind:

SMILES | IC50 [1] | IC50 ([2]; Homo sapiens, DU-145, 96 h) | IC50 ([3]; Homo sapiens, HCT-116, 96 h) | IC50 ([5]; Homo sapiens, 96 h) | IC50 ([6]; Homo sapiens, 96 h) | IC50 [2] | IC50 [3] | IC50 [5] | IC50 [6] | IC50 ([4]; Homo sapiens, 96 h) | IC50 [4]
COc1cc2c(cc1O)CC[C@@H]1[C@@H]2CC[C@]2(C)[C@@H](O)CC[C@@H]12 [2-Methoxyestradiol, reference compound] | 2700 nM |  |  |  |  | 1900 nM | 1100 nM | 200 nM | 1800 nM |  | 2200 nM
CC(=O)O[C@H]1C(=O)[C@@]2(C)[C@H]([C@H](OC(=O)c3ccccc3)[C@]3(O)C[C@H](OC(=O)[C@H](O)[C@@H](NC(=O)c4ccccc4)c4ccccc4)C(C)=C1C3(C)C)[C@]1(OC(C)=O)CO[C@@H]1C[C@@H]2O [Taxol, reference compound] |  | 4 nM | 4 nM | 400 nM | 4 nM |  |  |  |  | 4 nM | 
